Peptide text beside a SMILES is read from it.
Experiments:
[1] = biological target: T1, grass carp TACR3 (Ctenopharyngodon idella, UniProt A0A075BDW2); test: CRE-Luc luciferase reporter (cAMP pathway) in HEK-293 cells with stable expression of grass carp TACR3; format: cell-based, grass carp (Ctenopharyngodon idellus); details: SEM
T1 sequence (A0A075BDW2 1-395): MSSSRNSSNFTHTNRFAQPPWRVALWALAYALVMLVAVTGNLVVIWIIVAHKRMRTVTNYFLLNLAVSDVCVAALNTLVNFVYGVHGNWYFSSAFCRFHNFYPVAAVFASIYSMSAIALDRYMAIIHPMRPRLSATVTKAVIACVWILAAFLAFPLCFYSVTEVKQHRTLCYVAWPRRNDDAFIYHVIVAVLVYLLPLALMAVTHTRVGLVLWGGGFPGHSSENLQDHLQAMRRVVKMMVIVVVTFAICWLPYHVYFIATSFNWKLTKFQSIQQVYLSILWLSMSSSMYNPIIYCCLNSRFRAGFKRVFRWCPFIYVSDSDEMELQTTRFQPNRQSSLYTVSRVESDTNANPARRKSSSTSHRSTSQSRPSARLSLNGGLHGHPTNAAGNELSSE
Protocol: To clarify the ligand selectivity and signal transduction pathways of TACR3, functional expression of grass carp TACR3 was performed in HEK-293 cells with co-transfection of luciferase-expressing reporters targeting different signaling pathways provided by the Clontech Cell Signaling Profiling Kit (Clontech, Mountain View, CA, USA), including cAMP response element (CRE)-Luc (for cAMP pathway), activator protein-1 (AP1)-Luc (for PKC pathway), nuclear factor of activated T-cells (NFAT)-Luc (for Ca^2+/calcineurin pathway), and serum responsive element (SRE)-Luc (for MAPK pathway) [29]. […]
For the calcium bioluminescence signals and raw data obtained from luciferase reporter assays, the luminescence signals or luciferase activity was expressed as “relative luminescence unit (RLU)” registered by the fluorescence plate reader. For individual samples of the luciferase reporter assay, the firefly luciferase activity detected was routinely normalized against Renilla Luciferase activity expressed in the same well and expressed as the luciferase activity ration (as “Luc Ratio”). […] The six replicates presented (expressed as Mean ± SEM) were pooled results from two individual experiments prior to statistical analysis; all data were tested for normality of distribution using the Shapiro–Wilk normality test. […]

[2] = biological target: T1, grass carp TACR3; test: Fluorescence-based receptor binding assay, displacement of FAM-NKBa tracer; parameters: species or system grass carp (Ctenopharyngodon idellus); details: HEK-293 cells with stable expression of grass carp TACR3, 30 min pretreatment with competitor (0.1–1000 nM), then FAM-NKBa (10 nM) 30 min, 37 °C, fluorescence 490/520 nm; read-out: IC50 for displacing FAM-NKBa binding
[3] = system: SLα mRNA expression in grass carp pituitary cells; test: SLα mRNA expression (qPCR) in grass carp pituitary cells; format: cell-based, grass carp (Ctenopharyngodon idellus); details: senktide 1 µM, IGF-I/-II 100 nM (Figure 4E)
Protocol: Grass carp pituitary cells prepared by the trypsin/DNase digestion method were seeded in 24-well plates at ~2.5 × 10^6 cells/mL/well. On the following day, drug treatment was initiated by replacing the old medium with a testing medium with the appropriate levels of test substances, and the cells were then allowed to incubate at 28 °C for the duration as indicated. After drug treatment, total RNA was extracted from individual wells and reversely transcribed as above. The RT samples obtained were subjected to qPCR using a LightCycler SYBR Green I Kit (Roche, Stockholm, Sweden) with the primers mentioned above. In these studies, serial dilutions of plasmid DNA containing the ORF of SLα (GeneBank no.: EF372074) and TACR3 (GenBank no: JQ254913) cDNA were used as the standards for data calibration. Parallel real-time PCR measurement of β-actin was also conducted in individual experiments to serve as the internal control.
For real-time PCR of SLα and TACR3 mRNA measurement, standard curves with a dynamic range of ≥10^5 and correlation coefficient of ≥0.95 were used for data calibration with the RotorGene-Q software 1.7 (Qiagen) under unsupervised mode. SLα and TACR3 mRNA data were normalized with the β-actin transcript level and then were transformed as a percentage of the mean value in the control group without drug treatment (as “%Ctrl”). For the calcium bioluminescence signals and raw data obtained from luciferase reporter assays, the luminescence signals or luciferase activity was expressed as “relative luminescence unit (RLU)” registered by the fluorescence plate reader. For individual samples of the luciferase reporter assay, the firefly luciferase activity detected was routinely normalized against Renilla Luciferase activity expressed in the same well and expressed as the luciferase activity ration (as “Luc Ratio”). For receptor binding assay, specific binding of FAM-NKBa was measured in terms of “Arbitrary Fluorescence Unit (AFU)”. The six replicates presented (expressed as Mean ± SEM) were pooled results from two individual experiments prior to statistical analysis; all data were tested for normality of distribution using the Shapiro–Wilk normality test. Then, one-way ANOVA and two-way ANOVA were used to test the significant difference according to different experiment groups. The differences between groups were considered as significant at P < 0.05 (“*”) or highly significant at P < 0.01 (“**”).

[4] = system: Akt; test: Western blot for signaling kinases: Akt phosphorylation; format: cell-based, grass carp (Ctenopharyngodon idellus); details: grass carp pituitary cells, senktide (1 µM) + IGF-I (50 nM), 15 min
Protocol: (§1) The pituitary cells derived from twenty grass carp pituitaries were seeded in 24-well culture plates at a density of 2.5 × 10^6 cells/mL/well and incubated with drug treatment for the duration as indicated in the individual experiments. […] After drug treatment, the culture medium from individual wells was removed and the remaining cells were rinsed with PBS and lysed in RIPA buffer (50 mM Tris^·HCl, 150 mM NaCl, 1 mM EDTA, 1% NP-40, and 0.25% Na deoxycholate), containing a final concentration of 1×protease/phosphatase inhibitor cocktail (Roche). The cell lysate was cleared by high-speed centrifugation at 4 °C, the clear supernatant was resolved in 10% gel by SDS-PAGE, and Western blotting was conducted according to the procedures as previously described. The antibodies that can be detected, the phosphorylated and total ERK1/2 (1:5,000), MEK1/2 (1:1,000), p38 MAPK (1:1,000), and Akt (1:1,000), were used at the dilutions recommended by the manufactures. […] Chemiluminescence signals for target immune-reactivity were detected using SuperSignal West Pico (PIERCE, Rockford, IL, USA) as the substrate and quantified using the IC440 CF Digital Science Image Station (Eastman Kodak, Rochester, NY, USA). […]

[5] = system: p38MAPK; test: Western blot for signaling kinases: p38MAPK phosphorylation; format: cell-based, grass carp (Ctenopharyngodon idellus); details: grass carp pituitary cells, senktide (1 µM) + IGF-I (50 nM), 15 min
Protocol: as §1

[6] = system: MEK1/2; test: Western blot for signaling kinases: MEK1/2 phosphorylation; format: cell-based, grass carp (Ctenopharyngodon idellus); details: grass carp pituitary cells, senktide (1 µM) + IGF-I (50 nM), 15 min
Protocol: as §1

[7] = system: ERK1/2; test: Western blot for signaling kinases: ERK1/2 phosphorylation; format: cell-based, grass carp (Ctenopharyngodon idellus); details: grass carp pituitary cells, senktide (1 µM) + IGF-I (50 nM), 15 min
Protocol: as §1

Compound: CSCC[C@H](NC(=O)[C@H](CC(C)C)NC(=O)CNC(=O)[C@H](Cc1ccccc1)N(C)C(=O)[C@H](Cc1ccccc1)NC(=O)[C@H](CC(=O)O)NC(=O)CCC(=O)O)C(N)=O [senktide] (HELM PEPTIDE1{[O=C(O)CCC(=O)[*:2]].D.F.[meF].G.L.M.[am]}$$$$V2.0; N-terminus and C-terminus assumed)
- EC50 [1]: 21.3 ± 3.2 nM
- IC50 [2]: 71.2 ± 9.23 nM
- SLα mRNA expression on cotreatment of TACR3 agonist with IGF-I or IGF-II [3]: mimic the synergistic effects
- effect of cotreatment on IGF-I-induced protein phosphorylation of Akt [4]: noticeable potentiating effect
- effect of cotreatment on IGF-I-induced protein phosphorylation of p38MAPK [5]: did not alter
- effect of cotreatment on IGF-I-induced protein phosphorylation of MEK1/2 [6]: did not alter
- effect of cotreatment on IGF-I-induced protein phosphorylation of ERK1/2 [7]: did not alter

Source: article PMC6721824, “IGFs Potentiate TAC3-induced SLα Expression via Upregulation of TACR3 Expression in Grass Carp Pituitary Cells” (Cells, 2019)
